According to US11369623B2, “Anticancer combination of a CBP/catenin inhibitor and an immune checkpoint inhibitor” (PRISM Pharma Co., Ltd., priority 2015, dated 2022):

Key:
[1] = tested on: spontaneous breast cancer of transgenic mouse (MMTV-Wnt-1); assay: Tumor volume in mice serially transplanted with spontaneous breast cancer of transgenic mouse (MMTV-Wnt-1); type: in vivo, mouse (C57BL/6J); conditions: compound A 50 mg/kg twice per day oral, antibody 10 mg/kg twice per week i.p.
Excerpt: Effect of combined use of CBP/catenin inhibitor (compound A) and anti-mouse PD-1 (CD279) antibody in animal model serially transplanted with subcultured spontaneous breast cancer of transgenic mouse (MMTV-Wnt-1)
Spontaneous breast cancer of transgenic mouse (MMTV-Wnt-1), in which Wnt-1 had been locally expressed in mammary gland epithelial cells, was harvested, and serially transplanted to the background line mouse (C57BL/6J) with trocar. When the serially transplanted tumor became about 1.5 g, it was isolated, processed into fragments of about 30 mg, and subcutaneously transplanted to the side of the body of 5 mice (C57BL/6J) per each group. Engraftment of the tumor was confirmed, and compound A (50 mg/kg, twice per day, 21 days, oral administration) and anti-mouse PD-1 antibody (Clone: RMP1-14, BioXCell) (10 mg/kg, twice per week, 3 weeks, intraperitoneal administration) were each administered singly or in combination.
With the day of the start of administration as day 0, the major axis and the minor axis of the tumor developed in each mouse were measured by Digimatic Caliper (Mitsutoyo) on days 4, 7, 11, 14, 18, and 21.
The tumor volume was calculated according to the following formula. tumor volume TV(mm^3)=tumor major axis(mm)×tumor minor axis^2(mm^2)/2

[2] = tested on: bile duct cancer; conditions: cited from earlier work
[3] = tested on: human breast cancer cell line (MDA-MB-231); assay: Side population (cancer stem cell) fraction of MDA-MB-231 after compound treatment; type: cell-based; conditions: 0.3 μM in culture medium, after 4 days; untreated 1.6% SP cells
Procedure: To a side population fraction (cancer stem cells were considered to have been concentrated) obtained by two-dimensional cell sorting of human breast cancer cell line (MDA-MB-231) with Hoechst Blue and Hoechst Red was added 0.3 μM CBP/catenin inhibitor (compound 2) in the culture medium. After 4 days, the side population fraction almost disappeared (when untreated with medicament, 1.6% SP cells were detected, whereas 0% was detected in compound 2 treatment group), and the cancer stem cells were considered to have differentiated (FIG. 3).

[4] = tested on: 624 mel cells and 928 mel cells; assay: IL-10 production by melanoma cells (ELISA of culture supernatant); type: cell-based, human; conditions: 0.2 μM, 24 hr, FIG. 5
Procedure: IL-10 Production Suppressive Action of CBP/Catenin Inhibitor (Compound 1)
624 mel cells and 928 mel cells were used, which are cell lines (melanoma) established from human malignant melanoma patients by US NIH. These cells have been activated and have IL-10 production ability.
In a culture medium (10% FCS-containing RPMI1640, penicillin and streptomycin added), respective melanoma cells were seeded in a 6-well plate at a concentration of 1×10^5 cells/2 ml/well. After seeding, compound 1 was added to a given concentration and the cells were cultured for 24 hr. After 24 hr, the culture supernatant was recovered, and the concentration of IL-10 in the supernatant was measured. For the measurement of IL-10 concentration, Human IL10 OptEIA ELISA set (BD, #555157) was used.

[5] = tested on: 624 mel cells and 928 mel cells; assay: Influence on proliferation of melanoma cells; type: cell-based, human; conditions: 24 hr, any cell
[6] = cited from earlier work

## C=CCN1CC(=O)N2[C@@H](Cc3ccc(O)cc3F)C(=O)N(Cc3cccc(N4CC(N5CCN(CC)CC5)C4)n3)C[C@@H]2N1C(=O)NCc1ccccc1 [compound A, (6S,9aS)-N-benzyl-8-((6-(3-(4-ethylpiperazin-1-yl)azetidin-1-yl)pyridin-2-yl)methyl)-6-((2-fluoro-4-hydroxyphenyl)methyl)-4,7-dioxo-2-(prop-2-en-1-yl)-octahydro-1H-pyrazino[2,1-c][1,2,4]triazine-1-carboxamide]
[1]; Day 0
  tumor volume TV, Mean ± SEM: 75.3 ± 9.2 mm^3
[1]; Day 4
  tumor volume TV, Mean ± SEM: 83.2 ± 8.5 mm^3
[1]; Day 7
  tumor volume TV, Mean ± SEM: 90.5 ± 22.3 mm^3
[1]; Day 11
  tumor volume TV, Mean ± SEM: 123.1 ± 40.5 mm^3
[1]; Day 14
  tumor volume TV, Mean ± SEM: 140.4 ± 45.1 mm^3
[1]; Day 18
  tumor volume TV, Mean ± SEM: 221.6 ± 47.9 mm^3
[1]; Day 21
  tumor volume TV, Mean ± SEM: 237.7 ± 41.2 mm^3

## O=C1[C@H](Cc2ccc(O)cc2)N2C(=O)CCN(C(=O)NCc3ccccc3)[C@H]2CN1Cc1cccc2ccccc12 [ICG-001, (6S,9aS)-N-benzyl-6-[(4-hydroxyphenyl)methyl]-8-(naphthalen-1-ylmethyl)-4,7-dioxo-3,6,9,9a-tetrahydro-2H-pyrazino[1,2-a]pyrimidine-1-carboxamide]
[2]
  proliferation inhibitory effect in animal model: strong proliferation inhibitory effect

## C[C@H]1[C@H]2N(C(=O)CN(C)N2C(=O)NCc2ccccc2)[C@@H](Cc2ccc(O)cc2)C(=O)N1Cc1cccc2cccnc12 [compound 2, (6S,9S,9aS)-N-benzyl-6-(4-hydroxybenzyl)-2,9-dimethyl-4,7-dioxo-8-(quinolin-8-ylmethyl)octahydro-1H-pyrazino[2,1-c][1,2,4]triazine-1-carboxamide]
[3]
  SP cells detected (side population fraction): 0%

## C[C@H]1[C@H]2N(C(=O)CN(C)N2C(=O)NCc2ccccc2)[C@@H](Cc2ccc(OP(=O)(O)O)cc2)C(=O)N1Cc1cccc2cccnc12 [compound 1, 4-(((6S,9S,9aS)-1-(benzylcarbamoyl)-2,9-dimethyl-4,7-dioxo-8-(quinolin-8-ylmethyl)octahydro-1H-pyrazino[2,1-c][1,2,4]triazin-6-yl)methyl)phenyl dihydrogen phosphate]
[4]
  production of IL-10: production of IL-10 was suppressed
[5]; 0.2 μM
  influence on the proliferation: an influence on the proliferation was not confirmed
[5]; 1 μM
  influence on the proliferation: an influence on the proliferation was confirmed

## C[C@H]1[C@H]2N(C(=O)CN(C)N2C(=O)NCc2ccccc2)[C@@H](Cc2ccc(OP(=O)(O)O)cc2)C(=O)N1Cc1cccc2cccnc12 [PRI-724]
[6]
  toxicity in human compared with conventional Wnt inhibitors having other mechanisms: clearly less toxic in human than conventional Wnt inhibitors
